In article PMC5442318, “Hundreds of dual-stage antimalarial molecules discovered by a functional gametocyte screen” (Nature Communications, 2017):
Where two headings read alike, the source gives them in different places.

Assays:
[1] = tested on: P. falciparum stage V female gametocytes; assay: P. falciparum female gametocyte activation assay (Pf FGAA), 24 h or 48 h preincubation, Pfs25 expression readout; format: cell-based, Plasmodium falciparum NF54; conditions: mean, read-out: Gametocytes mean Pf FGAA IC50
Procedure, shortened: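 Purified stage V gametocytes from P. falciparum NF54 gametocyte cultures were exposed to compounds for 24 h or 48 h at 37 °C under 3% O2/5% CO2, then activated by temperature drop plus xanthurenic acid. Activated females were stained with Cy3-anti-Pfs25 (0.5 μg ml^−1) for 24 h at 26 °C and counted by high-content imaging; pIC50 by nonlinear regression.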

[2] = tested on: P. falciparum asexual blood stages; conditions: read-out: Pf Asexual blood stages XC50, cited from earlier work
[3] = tested on: P. falciparum stages IV–V gametocytes; assay: Gametocytocidal ATP-depletion assay (gametocyte ATP bioluminescence); format: cell-based, Plasmodium falciparum
Procedure, shortened: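 Purified stage IV–V gametocytes (12,500/well) incubated with compound for 48 h at 37 °C under 3% O2/5% CO2. ATP measured by BacTiter-Glo luminescence as a viability surrogate; hits tested at 2 μM single concentration.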

HepG2 cells = assay: HepG2 cytotoxicity assay; format: cell-based
Procedure, shortened: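 Steps: equilibrate plates and detection reagent at room temperature (30 min); dispense CellTiter-Glo; allow 10 min at room temperature; record luminescence.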

[4] = P. falciparum female gametocyte activation assay
[5] = TCAMS asexual blood stage data, ref 1 (Gamo, F. J. et al., Nature 465, 305-310, 2010)
[6] = P. falciparum female gametocytes
[7] = TCAMS data, ref 1 (Gamo et al., 2010)

| Structure (SMILES) | IC50 [1, 4] [nM] | IC50 [2, 5] [nM] | Gametocytes mean ATP inhibition at 2µM [3] [%] | HepG2 cells mean TOX50 (HepG2 cells; mean; HepG2 cells) [µM] | IC50 [1, 6] [nM] | HepG2 cells mean TOX50 (HepG2 cells; HepG2 cells; mean) [µM] | IC50 [1] [nM] | IC50 [2, 7] [nM] | Gametocytes mean ATP inhibition at 2µM (%) [3] [%] | HepG2 cells mean TOX50 (HepG2 cells; mean) [µM] |
| --- | --- | --- | --- | --- | --- | --- | --- | --- | --- | --- |
| CCN(CC)CCN(Cc1ccc(-c2ccc(C(F)(F)F)cc2)cc1)C(=O)Cn1cc(Cc2cnn(C)c2)c(=O)nc1/C=C/c1cccc(F)c1F [TCMDC-140964] | 870 | 960 | 69.60 | 9.69 |  |  |  |  |  |  |
| O=c1c(NCCCN(Cc2ccc(F)cc2)c2ccccn2)c(NCc2cccnc2)c1=O [TCMDC-142311] | 360 | 60 | 58.25 | >100 |  |  |  |  |  |  |
| CC(C)(C)c1ccc(CN2CCC(CNC(=O)c3cc(-c4ccccc4C(F)(F)F)cs3)C2)cc1.O=C(O)C(F)(F)F (stereo not drawn) [TCMDC-134441] |  | 1240 | -17.21 |  | 690 | 9.77 |  |  |  |  |
| CN1CCN(CCCNCc2cccc(Nc3nccc(Nc4ccc(Oc5ccccc5)cc4)n3)c2)CC1 [TCMDC-138616] |  |  |  |  |  |  | 980 | 760 | 13.07 | 4.68 |
| Cc1c(Cn2nc(Cl)c(N3CCNCC3)cc2=O)cccc1NC(=O)Nc1ccc(-c2ccccc2)cc1.O=C(O)C(F)(F)F [TCMDC-141699] | 4910 | 1380 | -8.75 | 4.22 |  |  |  |  |  |  |
| C#CCCOc1ccc2ccccc2c1CNCCCCCCNCc1c(OCCC#C)ccc2ccccc12 [TCMDC-137832] |  |  |  |  |  |  | 920 | 810 | 12.79 | 4.79 |
| Fc1ccc2[nH]c(-c3ccc(-c4ccc(CN5CCC(CCN6CCCCC6)CC5)cc4)cc3)nc2c1.O=C(O)C(F)(F)F [TCMDC-133924] |  | 130 | 11.89 |  | 1700 | 3.94 |  |  |  |  |
| [O-][s+]1c(Cl)c(-c2ccc(Cl)cc2)c2ccc(Cl)cc21 (stereo not drawn) [TCMDC-124011] |  | 990 | 87.64 |  | 36.6 | 11.35 |  |  |  |  |
| c1ccc(-c2nc(Nc3nc4ccccc4[nH]3)[nH]c2-c2ccccc2)cc1 [TCMDC-139099] |  |  |  |  |  |  | 580 | 620 | 51.90 | 10.98 |
| ON=C(c1nc2ccccc2[nH]1)c1nc2ccccc2[nH]1 [TCMDC-125758] |  | 1090 | 89.28 |  | 330 | 4.96 |  |  |  |  |
| Cc1ccnc(NC(c2ccc(Cl)c([N+](=O)[O-])c2)c2ccc3cccnc3c2O)c1 (stereo not drawn) [TCMDC-123691] |  | 930 | 95.66 |  | 1480 | 23.45 |  |  |  |  |
| CN(C)CCNCc1ccc(-c2ccc3c(Nc4ccc(Cl)cc4F)ccnc3c2)o1 [TCMDC-138391] |  |  |  |  |  |  | 1710 | 210 | 2.24 | 0.89 |
| CN1CCC(N2CCN(Cc3cccc(-c4ccc(-c5nc6cc(C(F)(F)F)ccc6[nH]5)cc4)c3)CC2)CC1.O=C(O)C(F)(F)F [TCMDC-133842] |  | 140 | 4.02 |  | 1090 | 2.44 |  |  |  |  |
| COC(=O)c1ccc(-c2ccc(-c3cccnc3)cc2C)cc1 [TCMDC-139074] |  |  |  |  |  |  | 590 | 660 | 88.85 | 3.63 |
| Cl.Clc1ccc(OCCC2CCN(CCCCCCCN3CCC(CCOc4ccc(Cl)c(Cl)c4)CC3)CC2)cc1Cl [TCMDC-138967] |  |  |  |  |  |  | 520 | 620 | 95.79 | 1.64 |
| COc1ccc(CNC2Cc3ccccc3C2)cc1-c1ccc(S(=O)(=O)NCCN2CCCC2)c(F)c1.O=C(O)C(F)(F)F [TCMDC-132266] |  | 720 | 7.12 |  | 1950 | 6.03 |  |  |  |  |
| Fc1ccc(NC(S)=NN=Cc2ccccn2)cc1 [TCMDC-125521] |  | 770 | 85.73 |  | 27.1 | >100 |  |  |  |  |
| COc1ccc2nc(-c3ccccc3)cc(NCCCNc3cc(-c4ccccc4)nc4ccc(OC)cc34)c2c1.Cl [TCMDC-137734] |  |  |  |  |  |  | 5600 | 120 | 2.17 | 70.79 |
| Clc1ccc(Nc2nc3ccc(Cl)cc3nc2Nc2ccc(Cl)cc2)cc1 [TCMDC-137772] |  |  |  |  |  |  | 1910 | 130 | 27.62 | 7.86 |
| CC(C)c1ccc(CN2CCC(CNC(=O)c3cc(-c4ccc(N(C)C)cc4)cs3)C2)cc1.O=C(O)C(F)(F)F (stereo not drawn) [TCMDC-134440] |  | 1250 | -6.60 |  | 710 | 5.85 |  |  |  |  |
| O=C(O)C(F)(F)F.c1cc(CN2CCC(CCN3CCCCC3)CC2)cc(-c2csc(-c3nc4ccccc4[nH]3)c2)c1 [TCMDC-133919] |  | 140 | 3.61 |  | 2110 | 6.04 |  |  |  |  |
| CN(CCc1ccccc1)c1ncc(-c2cccc(CNCCC3CCCN3C)c2)cn1 (stereo not drawn) [TCMDC-133143] |  | 870 | 11.85 |  | 1360 | 2.88 |  |  |  |  |
| Cc1ccc(Cn2nc(N3CCNCC3)ccc2=O)cc1NC(=O)Nc1ccc(-c2ccccc2)cc1.O=C(O)C(F)(F)F [TCMDC-132580] |  | 840 | 1.45 |  | 1940 | 7.42 |  |  |  |  |
| CC(CCCCCC(=O)Nc1ccc(CC(C)NCCc2cccc(Cl)c2)cc1)NCCc1cccc(Cl)c1 (stereo not drawn) [TCMDC-139800] |  |  |  |  |  |  | 1390 | 950 | 20.09 | 2.55 |
| CCN(CC)CCCn1c(N)c(-c2nc3ccccc3[nH]2)c2nc(C#N)c(C#N)nc21 [TCMDC-123680] |  | 270 | 86.44 |  | 740 | 4.27 |  |  |  |  |
| Nc1nc(N)c2c(ccc3c2ccn3Cc2ccc(-c3ccccc3)cc2)n1 [TCMDC-137813] |  |  |  |  |  |  | 2010 | 50 | 26.93 | 1.16 |
| Nc1cc2c(C3CCN(CC4CCN(C(=O)/C=C/c5ccc(Cl)c(Cl)c5)CC4)CC3)c[nH]c2cn1 [TCMDC-140133] |  |  |  |  |  |  | 1970 | 980 | -6.84 | 6.24 |
| CC(C)c1ccc(CN2CCC(CNC(=O)c3cc(-c4cccc(Cl)c4)cs3)C2)cc1.O=C(O)C(F)(F)F (stereo not drawn) [TCMDC-134438] |  | 750 | -9.36 |  | 600 | 6.53 |  |  |  |  |
| CN1CCN(CCCN(Cc2cccc(-c3ccc(CNC4CCCC4)cc3)c2)C(=O)/C=C/c2ccccc2)CC1.O=C(O)C(F)(F)F [TCMDC-140544] |  |  |  |  |  |  | 1360 | 750 | 0.64 | 7.70 |
| COc1cc2nc(NCc3cccc(CNC(=O)c4ccc(-c5ccc(C(C)=O)cc5)cc4)c3)nc(N)c2cc1OC.O=C(O)C(F)(F)F [TCMDC-138177] |  |  |  |  |  |  | 4730 | 120 | -19.05 | 6.82 |
